Experimental data published in patent US12616673B2 (priority 2020, dated 2026).

Test system: LC3 in MOLM-13 cells
Test: Autophagy activation: LC3 Western blot and confocal microscopy
Settings: 48 hours in culture
Method: C MOLM-13 cells were treated as in FIG. 1A for 24 or 48 hours. […] D The same cells analysed by Western blot in C were also assessed by confocal microscopy analysis to highlight the LC3 dots (in green); the DNA is highlighted in blue by the Hoechst dye.
After being deposited on a slide via cytospin, the cells were fixed with 4% paraformaldehyde for 7 min, permeabilized with 0.1% TritonX100 in PBS/1% BSA for 5 min and stained with the primary anti-FLT3 (rabbit monoclonal, FLT3 (8F2), #3462, Cell Signaling Technologies, Danvers, MA, USA) or anti-calnexin (CNX, rabbit polyclonal AB22595, AbCam, Cambridge, UK) or anti-calreticulin (CRT, rabbit polyclonal AB2907, AbCam, Cambridge, UK) or anti-LC3 (LC3B Antibody #2775) antibodies, and then with an Alexa Fluor-488 secondary anti-rabbit IgG antibody Molecular Probes, ThermoFisher Scientific, Waltham, MA, USA); the DNA was detected with the TOPRO-3 (Molecular Probes, ThermoFisher Scientific, Waltham, MA, USA) or Hoechst dye (Molecular Probes, ThermoFisher Scientific, Waltham, MA, USA) and the slides were mounted with the Vectashield medium (Vector Laboratories, Burlingame, CA, USA). The images were acquired with a Leica confocal laser scanning microscope TCS SP2 at 40× magnification or with a Zeiss LSM900 at 63× magnification. The images were analysed using the Leica Confocal software (Leica, Milan, Italy) or the Zeiss Zen Blue software. […]

CC1=C(/C=C/C(C)=C/C=C/C(C)=C/C(=O)O)C(C)(C)CCC1 [R, all-trans retinoic acid]
autophagy activation (LC3 activity, LC3-II/LC3-I): slight increase in LC3 activity
